Legend:
Assay in all cases: fluorescence sialidase assay with 4-MU-Neu5Ac
Type in all cases: biochemical
[1] = biological target: T1, PtNanH2 (Hoylesella timonensis, UniProt D1VWZ8)
T1 construct: gene HMPREF9019_0332; full-length gene in pET28a, N-terminal His6 tag, E. coli BL21(DE3); 1,030 amino acids incl. predicted signal peptide

[2] = biological target: T2, GvNanH3 (Gardnerella vaginalis, UniProt S4HLQ0)
T2 construct: full-length gene in pET28a, N-terminal His6 tag, E. coli BL21(DE3)
From the text: fluorescence sialidase assay with 4-MU-Neu5Ac on GvNanH3 | All enzymes were inhibited by the well-characterized, broad-spectrum sialidase inhibitor, Neu5ac2en

[3] = biological target: T3, PbNanH (Prevotella bivia, UniProt I4ZBT3); settings: 100 µM 4-MU-Neu5Ac, 5 nM enzyme, sodium acetate pH 5.5, 37 °C
T3 construct: gene PrebiDRAFT_2006; full-length gene in pET28a, N-terminal His6 tag, E. coli BL21(DE3)
From the text: fluorescence sialidase assay with 4-MU-Neu5Ac on PbNanH | All enzymes were inhibited by the well-characterized, broad-spectrum sialidase inhibitor, Neu5ac2en

[4] = biological target: T4, PtNanH1 (Hoylesella timonensis, UniProt D1VY87)
T4 construct: gene HMPREF9019_1088; full-length gene in pET28a, N-terminal His6 tag, E. coli BL21(DE3); 413 amino acids incl. predicted signal peptide

[5] = biological target: T5, PdNanH (Prevotella denticola, UniProt F0H7U2); settings: 100 µM 4-MU-Neu5Ac, 5 nM enzyme, sodium acetate pH 5.5, 37 °C
T5 construct: gene HMPREF9303_0049; full-length gene in pET28a, N-terminal His6 tag, E. coli BL21(DE3); predicted signal peptide
From the text: fluorescence sialidase assay with 4-MU-Neu5Ac on PdNanH | All enzymes were inhibited by the well-characterized, broad-spectrum sialidase inhibitor, Neu5ac2en

Compound	IC50 [1]	IC50 [2]	IC50 [3]	IC50 [4]	IC50 [5]
CC(=O)N[C@H]1[C@H]([C@H](O)[C@H](O)CO)OC(C(=O)O)=C[C@@H]1O [Neu5Ac2en]	56 ± 23 µM	29 ± 5.6 µM	103 ± 20.3 µM	180 ± 92.3 µM	50.5 ± 22.5 µM
CC(=O)N[C@H]1[C@H]([C@H](O)[C@H](O)CO)OC(C(=O)O)=C[C@@H]1N=C(N)N [Zanamivir]	33.6 ± 15.5 µM	–	–	–	–

Reference: publication PMC11388281, “Prevotella are major contributors of sialidases in the human vaginal microbiome” (Proceedings of the National Academy of Sciences of the …, 2024)
